According to US8236523B2, “Camp reporters and high throughput assays” (The Johns Hopkins University, priority 2004, dated 2012):

Key:
Assay type in all cases: cell-based
cAMP [1] = assay: High throughput 96-well plate assay using ICUE2 stable HEK293 cells; details: 1 μM Iso, 50 μM Fsk, 10 μM H89, 100 μM IBMX
Method: HEK293 cells which stably express ICUE2 (“ICUE2 stable HEK293 cells”) were grown to confluency in 10 cm dishes in DMEM, 10% FBS, 1% penicillin/streptomycin, and 250 μg/ml G418. HEK-293 cells were transfected with cDNA encoding ICUE2 using calcium phosphate at 40% confluency and allowed to grow for 40 hours. Cells were removed from the dish using 0.05% trypsin, spun down, and replaced with fresh media. ICUE2 stable HEK293 cells were counted on a hemocytometer using trypan blue stain. One hundred fifty thousand (150,000) cells were plated per well on a 96-well clear bottom assay plate in a total of 0.2 ml of media per […] and allowed to double once. Media was removed, cells were washed with Hanks buffered salt solution (HBSS) and then covered with 0.05 ml of HBSS per well. In a separate sterile plate, appropriate drugs were added to each well containing HBSS for a total volume of 0.05 ml. […] A baseline was established in three cycles, each consisting of a full plate reading of yellow intensity, followed by a reading of cyan intensity. Cells were then treated with isoproterenol (ISO; […] Readings were taken in six or twenty additional cycles. […] Baseline FRET ratios were calculated as the average ratio of yellow/cyan for each well before the addition of drug. FRET change was calculated as the percent increase of FRET ratio over baseline for each well during a given cycle. The FRET changes of all wells having undergone the same drug treatment were then averaged within each cycle, and that cycle was correlated with time.

cAMP [2] = assay: Dual-emission ratio (FRET) imaging of Epac-based cAMP reporters (ICUE1 and targeted fusions) in HEK-293 cells; details: HEK293 cells expressing ICUE1; 10 μM ISO, 50 μM FSK, 10 μM PGE1, 300 μM 8-pCPT-2′-O-Me-cAMP; average ± S.E.M
Method: Cell Culture. […] Cells were then transfected with FuGENE-6 transfection reagent (Roche) or calcium phosphate and allowed to grow for 12-24 hours before imaging.
Imaging. Cells were washed twice with Hanks' balanced salt solution buffer after 12- to 24-h incubation at 37° C. culture medium. Cells were maintained in buffer in the dark at room temperature with addition of isoproterenol (Aldrich), forskolin (Calbiochem), Prostaglandin E1 (PGE1) (Sigma), and 8-(4-chloro-phenylthio)-2′-O-methyl adenosine 3′,5′-monophosphate (8-pCPT-2′-O-Me-cAMP) (Axxora Biolog) as indicated. Cells were also treated with P-(4,5-dimethoxy-2-nitrobenzyl) adenosine 3′,5′-monophosphate (DMNB-cAMP) (Molecular Probe).
Cells were imaged on a Zeiss Axiovert 200M microscope with a cooled charge-coupled device camera MicroMAX BFT512 (Roper Scientific) controlled by METAFLUOR 6.2 software (Universal Imaging). Dual-emission ratio imaging used a 420DF20 excitation filter, a 450DRLP dichroic mirror and two emission filters (475DF40 for ECFP, 535DF25 for citrine) alternated by a filter changer Lambda 10-2 (Sutter Instruments). Exposure time was 100-500 ms and images were taken every 8-30 s. Fluorescent images were background-corrected by subtracting autofluorescence intensities of untransfected cells (or background with no cells) from the emission intensities of fluorescent cells expressing reporters. The ratios of cyan to yellow emissions were then calculated at different time points and normalized by dividing all ratios by the emission ratio just prior to stimulation therefore setting the basal emission ratio to 1.

cAMP [3] = assay: 96-well live cell plate reading of HEK293 cells expressing ICUE3; details: HEK293 cells expressing ICUE3, 1 μM ISO, 50 μM FSK
Method: Plate reading used a 420DF20 excitation filter and two emission filters (470DF40 for cyan and 535DF25 for yellow). A baseline was established in three cycles, each consisting of a full plate reading of yellow intensity, followed by a reading of cyan intensity. Cells were then treated with isoproterenol (ISO; Aldrich), forskolin (Calbiochem), H89, propranolol, and 3-isobutyl-1-methylxanthine (IBMX) as indicated. Readings were taken in six or twenty additional cycles. Each cycle lasted 60 to 145 sec. Baseline FRET ratios were calculated as the average ratio of yellow/cyan for each well before the addition of drug. FRET change was calculated as the percent increase of FRET ratio over baseline for each well during a given cycle. The FRET changes of all wells having undergone the same drug treatment were then averaged within each cycle, and that cycle was correlated with time.
Live cell plate reading. HEK293 cells were transfected with cDNA encoding ICUE reporters using calcium phosphate at 40% confluency and allowed to grow for 40 hours. Cells were then trypsinized and plated in a Costar 3603 96-well assay plate (Coming) at a density of 150,000 cells per well. After incubation for another 24 hours, cells were washed once with HBSS and left in 150 μl HBSS at 20-25° C. Fluorescence reading was taken on a FLUOstar OPTIMA fluorescence microplate reader (BMG Labtechnologies Inc.) using a 420DF20 excitation filter and two emission filters (470DF40 for cyan and […] for yellow). A baseline was established in three cycles, each consisting of a full plate reading of yellow intensity, followed by a reading of cyan intensity. Each cycle lasted between 64 and 145 seconds. Readings were taken in additional cycles. FRET change was calculated as the percent increase of emission ratios (cyan-to-yellow) over baseline for each well during a given cycle. To assess the efficacy of the assay, several statistical parameters were calculated, including Z factor, coefficient of variation, and signal-to-noise ratio (Zhang et al., J. Biomol. Screen. 4, 67-73, 1999).

## C=C[C@@]1(C)CC(=O)[C@]2(O)[C@@]3(C)[C@@H](O)CCC(C)(C)[C@@H]3[C@H](O)[C@H](OC(C)=O)[C@@]2(C)O1 [forskolin]
cAMP [1]; cycle 1 (1 cycle = 60 seconds)
  Average percent FRET response ± standard deviation, cycle 1: 0.36% ± 7.51%
cAMP [1]; cycle 2 (1 cycle = 60 seconds)
  Average percent FRET response ± standard deviation, cycle 2: 2.67% ± 4.53%
cAMP [1]; cycle 3 (1 cycle = 60 seconds)
  Average percent FRET response ± standard deviation, cycle 3: 8.71% ± 6.66%
cAMP [1]; cycle 4 (1 cycle = 60 seconds)
  Average percent FRET response ± standard deviation, cycle 4: 15.29% ± 3.37%
cAMP [1]; cycle 5 (1 cycle = 60 seconds)
  Average percent FRET response ± standard deviation, cycle 5: 15.23% ± 6.55%
cAMP [1]; cycle 6 (1 cycle = 60 seconds)
  Average percent FRET response ± standard deviation, cycle 6: 18.73% ± 3.97%
cAMP [1]; cycle 7 (1 cycle = 60 seconds)
  Average percent FRET response ± standard deviation, cycle 7: 20.79% ± 4.6%
cAMP [1]; cycle 8 (1 cycle = 60 seconds)
  Average percent FRET response ± standard deviation, cycle 8: 22.82% ± 4.58%
cAMP [1]; cycle 9 (1 cycle = 60 seconds)
  Average percent FRET response ± standard deviation, cycle 9: 24.98% ± 3.69%
cAMP [1]; cycle 10 (1 cycle = 60 seconds)
  Average percent FRET response ± standard deviation, cycle 10: 23.4% ± 4.53%
cAMP [1]; cycle 11 (1 cycle = 60 seconds)
  Average percent FRET response ± standard deviation, cycle 11: 24.46% ± 3.51%
cAMP [1]; cycle 12 (1 cycle = 60 seconds)
  Average percent FRET response ± standard deviation, cycle 12: 25.44% ± 2.14%
cAMP [1]; cycle 13 (1 cycle = 60 seconds)
  Average percent FRET response ± standard deviation, cycle 13: 24.97% ± 3.91%
cAMP [1]; cycle 14 (1 cycle = 60 seconds)
  Average percent FRET response ± standard deviation, cycle 14: 25.6% ± 4.31%
cAMP [1]; cycle 15 (1 cycle = 60 seconds)
  Average percent FRET response ± standard deviation, cycle 15: 27.0% ± 1.87%
cAMP [1]; cycle 16 (1 cycle = 60 seconds)
  Average percent FRET response ± standard deviation, cycle 16: 25.84% ± 3.57%
cAMP [1]; cycle 17 (1 cycle = 60 seconds)
  Average percent FRET response ± standard deviation, cycle 17: 26.32% ± 1.66%
cAMP [1]; cycle 18 (1 cycle = 60 seconds)
  Average percent FRET response ± standard deviation, cycle 18: 25.94% ± 3.05%
cAMP [1]; cycle 19 (1 cycle = 60 seconds)
  Average percent FRET response ± standard deviation, cycle 19: 25.98% ± 2.13%
cAMP [1]; cycle 20 (1 cycle = 60 seconds)
  Average percent FRET response ± standard deviation, cycle 20: 25.51% ± 1.67%
cAMP [2]
  increase in the ratio of cyan to yellow emissions (FRET response): 19.6%±1.0
cAMP [3]; 0 sec., 10 μM PRO, 100 μM IBMX, 10 μM H89
  Average percent FRET response ± standard deviation, 0 sec.: 9.05% ± 3.18%
cAMP [3]; 145 sec., 10 μM PRO, 100 μM IBMX, 10 μM H89
  Average percent FRET response ± standard deviation, 145 sec.: 13.0% ± 3.17%
cAMP [3]; 290 sec., 10 μM PRO, 100 μM IBMX, 10 μM H89
  Average percent FRET response ± standard deviation, 290 sec.: 14.8% ± 3.35%
cAMP [3]; 435 sec., 10 μM PRO, 100 μM IBMX, 10 μM H89
  Average percent FRET response ± standard deviation, 435 sec.: 16.7% ± 3.33%
cAMP [3]; 580 sec., 10 μM PRO, 100 μM IBMX, 10 μM H89
  Average percent FRET response ± standard deviation, 580 sec.: 16.8% ± 3.27%
cAMP [3]; 725 sec., 10 μM PRO, 100 μM IBMX, 10 μM H89
  Average percent FRET response ± standard deviation, 725 sec.: 17.9% ± 3.63%
cAMP [3]; n=7
  maximal response / emission ratio change: 17.9%±3.6%
